Biological target: T1, Human Rheumatoid Synovial Collagenase (Homo sapiens, UniProt P03956)
T1 construct: Human Rheumatoid Synovial Collagenase; from tissue; host or cells: human rheumatoid synovium (from the name only; the preparation is not described)
T1 sequence (P03956 100-469): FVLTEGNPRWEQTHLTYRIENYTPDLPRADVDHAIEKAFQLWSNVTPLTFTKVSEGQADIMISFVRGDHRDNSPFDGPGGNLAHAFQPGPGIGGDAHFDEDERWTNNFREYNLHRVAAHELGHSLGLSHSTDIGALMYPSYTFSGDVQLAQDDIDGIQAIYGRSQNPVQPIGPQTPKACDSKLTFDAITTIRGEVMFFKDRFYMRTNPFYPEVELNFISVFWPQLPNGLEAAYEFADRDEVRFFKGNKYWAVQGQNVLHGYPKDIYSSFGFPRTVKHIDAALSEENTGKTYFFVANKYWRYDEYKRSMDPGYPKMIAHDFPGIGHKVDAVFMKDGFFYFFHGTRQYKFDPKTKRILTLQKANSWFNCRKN
Test: Collagenase inhibition, procedure of Cawston and Barrett (acetyl 14C collagen hydrolysis)
Type: biochemical
Settings: inhibitor concentration effecting 50% inhibition; 37° C., 16 hours, native acetyl 14C collagen, Tris HCl-CaCl2 pH 7.6
Method: This was determined following the procedure of Cawston and Barrett, Anal. Biochem., 99, 340-345 (1979) whereby the 1 mM of the inhibitor being tested or dilutions thereof are incubated at 37° C. for 16 hours with native collagen and collagenase (buffered with Tris HCl--CaCl2; pH 7.6). The collagen is acetyl ^14 C collagen. The samples are centrifuged to sediment undigested collagen and an aliquot of the radiactive supernatant removed for assay on a scintillation counter as a measure of hydrolysis. The collagenase activity in the presence of 1 mM inhibitor, or a dilution thereof is compared to activity in a control devoid of inhibitor and the results reported as that inhibitor concentration effecting 50% inhibition of the collagenase.

IC50: 25 µM
SMILES: CCCCNC(=O)[C@H](C)NC(=O)[C@H](CC(C)(C)C)N[C@H](C)C(=O)O [Example 23, N-[2-(S)-N-(1-(R)-Carboxyethyl)amino-4,4-dimethylpentanoyl]-L-alanine N-Butylamide]

Source: patent US4511504A, “Carboxyalkyl peptide derivatives” (G.D. Searle & Co., priority 1983, dated 1985)
